According to patent publication US10435401B2, “Pesticidally active tetracyclic derivatives with sulphur containing substituents” (Syngenta Participations AG, priority 2014, dated 2019):

Assays:
Type in all cases: in vivo
[1] = system: Myzus persicae (Green Peach Aphid); experiment: Myzus persicae systemic activity; conditions: 144 h, test rate of 24 ppm, roots of infested pea seedlings in test solution, 6 days
Experimental: Example B6: Myzus persicae (Green Peach Aphid): Systemic Activity
Roots of pea seedlings infested with an aphid population of mixed ages were placed directly in the aqueous test solutions prepared from 10′000 ppm DMSO stock solutions. The samples were assessed for mortality 6 days after placing seedlings in test solutions.

[2] = system: Spodoptera littoralis (Egyptian Cotton Leaf Worm); experiment: Spodoptera littoralis systemic activity; conditions: 144 h, test rate of 12.5 ppm, compound in agar taken up by lettuce roots, 6 days after infestation, read-out: effect in at least one of the three categories (mortality, anti-feedancy, or growth inhibition)
Experimental: Example B10: Spodoptera littoralis (Egyptian Cotton Leaf Worm): Systemic Activity
Test compounds were applied by pipette from 10′000 ppm DMSO stock solutions into 24-well plates and mixed with agar. […] […] […] Spodoptera eggs were pipetted through a plastic stencil on a humid gel blotting paper and the plate closed with it. The samples were assessed for mortality, anti-feedant effect and growth inhibition in comparison to untreated samples 6 days after infestation.

[3] = system: Diabrotica balteata (Corn Root Worm); experiment: Diabrotica balteata feeding/contact activity; conditions: 96 h, application rate of 200 ppm, L2 larvae on sprayed maize sprouts, 4 days after infestation
Experimental: Example B2: Diabrotica balteata (Corn Root Worm): Feeding/Contact Activity
Maize sprouts, placed on an agar layer in 24-well microtiter plates were treated with aqueous test solutions prepared from 10′000 ppm DMSO stock solutions by spraying. After drying, the plates were infested with L2 larvae (6 to 10 per well). The samples were assessed for mortality and growth inhibition in comparison to untreated samples 4 days after infestation.

[4] = system: Myzus persicae (Green Peach Aphid); experiment: Myzus persicae feeding/contact activity; conditions: foliar, 144 h, application rate of 200 ppm, aphid population of mixed ages on sprayed sunflower leaf discs, 6 days after infestation
Experimental: Example B5: Myzus persicae (Green Peach Aphid): Feeding/Contact Activity
(§1) Sunflower leaf discs were placed on agar in a 24-well microtiter plate and sprayed with aqueous test solutions prepared from 10′000 ppm DMSO stock solutions. After drying, the leaf discs were infested with an aphid population of mixed ages. The samples were assessed for mortality 6 days after infestation.

[5] = system: Spodoptera littoralis (Egyptian Cotton Leaf Worm); experiment: Spodoptera littoralis feeding/contact activity; conditions: foliar, 72 h, application rate of 200 ppm, L1 larvae on sprayed cotton leaf discs, 3 days after infestation, read-out: control (at least one of mortality, anti-feedant effect, growth inhibition)
Experimental: Example B9: Spodoptera littoralis (Egyptian Cotton Leaf Worm): Feeding/Contact Activity
Cotton leaf discs were placed on agar in 24-well microtiter plates and sprayed with aqueous test solutions prepared from 10′000 ppm DMSO stock solutions. After drying the leaf discs were infested with five L1 larvae. The samples were assessed for mortality, anti-feedant effect, and growth inhibition in comparison to untreated samples 3 days after infestation. Control of Spodoptera littoralis by a test sample is when at least one of mortality, anti-feedant effect, and growth inhibition is higher than the untreated sample.

[6] = system: Plutella xylostella (Diamond Back Moth); experiment: Plutella xylostella feeding/contact activity; conditions: 120 h, application rate of 200 ppm, L2 larvae on treated artificial diet, 5 days after infestation, read-out: effect in at least one of the two categories (mortality or growth inhibition)
Experimental: Example B8: Plutella xylostella (Diamond Back Moth): Feeding/Contact Activity
24-well microtiter plates with artificial diet were treated with aqueous test solutions prepared from 10′000 ppm DMSO stock solutions by pipetting. After drying, the plates were infested with L2 larvae (10 to 15 per well). The samples were assessed for mortality and growth inhibition in comparison to untreated samples 5 days after infestation.

[7] = system: Euschistus heros (Neotropical Brown Stink Bug); experiment: Euschistus heros feeding/contact activity; conditions: 120 h, application rate of 200 ppm, N-2 nymphs on sprayed soybean leaf, 5 days after infestation, read-out: effect in at least one of the two categories (mortality or growth inhibition)
Experimental: Example B3: Euschistus heros (Neotropical Brown Stink Bug): Feeding/Contact Activity
Soybean leaf on agar in 24-well microtiter plates were sprayed with aqueous test solutions prepared from 10′000 ppm DMSO stock solutions. After drying the leaf were infested with N-2 nymphs. The samples were assessed for growth inhibition in comparison to untreated samples 5 days after infestation.

[8] = system: Tetranychus urticae (Two-Spotted Spider Mite); experiment: Tetranychus urticae feeding/contact activity; conditions: foliar, 192 h, application rate of 200 ppm, mite population of mixed ages (mobile stages) on sprayed bean leaf discs, 8 days after infestation
Experimental: Example B11: Tetranychus urticae (Two-Spotted Spider Mite):Feeding/Contact Activity
Bean leaf discs on agar in 24-well microtiter plates were sprayed with aqueous test solutions prepared from 10′000 ppm DMSO stock solutions. After drying the leaf discs were infested with a mite population of mixed ages. The samples were assessed for mortality on mixed population (mobile stages) 8 days after infestation.

[9] = system: Myzus persicae (Green Peach Aphid); experiment: Myzus persicae intrinsic activity; conditions: 120 h, test rate of 12 ppm, compound in sucrose solution under Parafilm, 5 days after infestation
Excerpt: Example B7: Myzus persicae (Green Peach Aphid): Intrinsic Activity
Test compounds from 10′000 ppm DMSO stock solutions were applied by pipette into 24-well microtiter plates and mixed with sucrose solution. The plates were closed with a stretched Parafilm. A plastic stencil with 24 holes was placed onto the plate and infested pea seedlings were placed directly on the Parafilm. The infested plate was closed with a gel blotting paper and another plastic stencil and then turned upside down. The samples were assessed for mortality 5 days after infestation.

[10] = system: Aedes aegypti (Yellow Fever Mosquito); experiment: whole plant or invertebrate; conditions: 48 h, test rate of 5 ppm, L2 larvae in 96-well plates, 2 days incubation, read-out: effect in at least one of the two categories (mortality or growth inhibition)
Experimental: Example B12: Aedes aegypti (Yellow Fever Mosquito): Feeding Contact Activity
10 to 15 Aedes larvae (L2) together with a nutrition mixture were placed in 96-well microtiter plates. Test compounds were pipetted into the wells. After an incubation period of 2 days insects were assessed for mortality and growth inhibition.

[11] = system: Frankliniella occidentalis (Western Flower Thrips); experiment: Frankliniella occidentalis feeding/contact activity; conditions: foliar, 168 h, application rate of 200 ppm, population of mixed ages on sprayed sunflower leaf discs, 7 days after infestation
Experimental: Example B4: Frankliniella occidentalis (Western Flower Thrips): Feeding/Contact Activity
as §1, with “in” for “in a”, “plates” for “plate”, “[…]” for “10′000 ppm”, “drying” for “drying,”, “a Frankliniella” for “an aphid”, “7” for “6”

[12] = system: Bemisia tabaci (Cotton White Fly); experiment: Bemisia tabaci feeding/contact activity; conditions: foliar, 144 h, application rate of 200 ppm, adult white flies on sprayed cotton leaf discs, 6 days after incubation
Experimental: Example B1: Bemisia tabaci (Cotton White Fly): Feeding/Contact Activity
Cotton leaf discs were placed on agar in 24-well microtiter plates and sprayed with aqueous test solutions prepared from 10′000 ppm DMSO stock solutions. After drying the leaf discs were infested with adult white flies. The samples were checked for mortality 6 days after incubation.

CCS(=O)(=O)c1cc(C(F)(F)F)cnc1-c1nc2cc(C3CC3)cnc2n1C [Compound P6]
≥ 80%: mortality at 24 ppm [1] | percent control (mortality, anti-feedancy or growth inhibition) at 12.5 ppm [2] | mortality at 200 ppm [3] | mortality at 200 ppm [4] | percent control (mortality, anti-feedant effect or growth inhibition) at 200 ppm [5] | percent effect (mortality or growth inhibition) at 200 ppm [6] | percent effect (mortality or growth inhibition) at 200 ppm [7]

CCS(=O)(=O)c1cc(C(F)(F)F)cnc1-c1nc2cc(C3(C#N)CCC3)cnc2n1C [Compound P3, 1-[2-[3-ethylsulfonyl-5-(trifluoromethyl)-2-pyridyl]-3-methyl-imidazo[4,5-b]pyridin-6-yl]cyclobutanecarbonitrile]
≥ 80%: mortality at 200 ppm [3]

CCS(=O)(=O)c1cc(C(F)(F)F)cnc1-c1nc2cc(C3CC3C#N)cnc2n1C (stereo not drawn) [Compound P4, 2-[2-[3-ethylsulfonyl-5-(trifluoromethyl)-2-pyridyl]-3-methyl-imidazo[4,5-b]pyridin-6-yl]cyclopropanecarbonitrile]
≥ 80%: mortality at 200 ppm [8]

CCS(=O)(=O)c1cc(C(F)(F)F)cnc1-c1nc2cc(C3(C#N)CC3)cnc2n1C [Compound P2, 1-[2-[3-ethylsulfonyl-5-(trifluoromethyl)-2-pyridyl]-3-methyl-imidazo[4,5-b]pyridin-6-yl]cyclopropanecarbonitrile]
≥ 80%: mortality at 24 ppm [1] | percent control (mortality, anti-feedancy or growth inhibition) at 12.5 ppm [2] | mortality at 200 ppm [3] | mortality at 12 ppm [9] | mortality at 200 ppm [4] | percent control (mortality, anti-feedant effect or growth inhibition) at 200 ppm [5] | percent effect (mortality or growth inhibition) at 200 ppm [6] | percent effect (mortality or growth inhibition) at 5 ppm [10] | mortality at 200 ppm [11] | mortality at 200 ppm [12]

CCS(=O)(=O)c1cc(C(F)(F)F)cnc1-c1nc2cc(C3CC3(C)C#N)cnc2n1C (stereo not drawn) [Compound P5, 2-[2-[3-ethylsulfonyl-5-(trifluoromethyl)-2-pyridyl]-3-methyl-imidazo[4,5-b]pyridin-6-yl]-1-methyl-cyclopropanecarbonitrile]
≥ 80%: percent control (mortality, anti-feedant effect or growth inhibition) at 200 ppm [5]

CCS(=O)(=O)c1cc(C(F)(F)F)cnc1-c1nc2cc(C3CC3)cnc2n1C [Compound P1, 6-cyclopropyl-2-[3-ethylsulfonyl-5-(trifluoromethyl)-2-pyridyl]-3-methyl-imidazo[4,5-b]pyridine]
≥ 80%: mortality at 12 ppm [9]
